Data from patent US20230279025A1, “KRAS G12D INHIBITORS” (Mirati Therapeutics, Inc., priority 2020, published 2023).

Biological target: KRas G12D (Homo sapiens (Human), UniProt P01116, G12D)
Assay: KRas G12D Binding Assay (TR-FRET displacement of Cy5 labelled tracer)
Settings: GDP-loaded KRAS G12D (amino acids 1:169), 60 minute incubation at 22° C.
Protocol: After a 60 minute incubation at 22° C., the reaction was measured using a PerkinElmer EnVision multimode plate reader via TR-FRET dual wavelength detection, and the percent of control (POC) calculated using a ratiometric emission factor. […] The POC values were fit to a 4-parameter logistic curve and the IC50 value was determined as the concentration where the curve crosses 50 POC.
ND stands for “not determined.”

Sequence of KRas G12D (P01116 other isoform, or with tags, fused parts or gaps G12D): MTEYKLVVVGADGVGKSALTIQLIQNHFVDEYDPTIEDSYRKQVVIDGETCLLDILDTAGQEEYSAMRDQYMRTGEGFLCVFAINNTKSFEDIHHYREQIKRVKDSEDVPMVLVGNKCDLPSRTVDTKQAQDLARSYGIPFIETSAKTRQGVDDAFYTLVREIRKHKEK

Compound	IC50 [nM]
Fc1c(-c2cccc3cccc(Cl)c23)ncc2c(N3C[C@H]4CC[C@@H](C3)N4)nc(OC[C@]34CCCN3[C@@H](Cn3cccn3)CC4)nc12 [Example 418, 2-(((3R,7aR)-3-((1H-pyrazol-1-yl)methyl)hexahydro-1H-pyrrolizin-7a-yl)methoxy)-4-((1R,5S)-3,8-diazabicyclo[3.2.1]octan-3-yl)-7-(8-chloronaphthalen-1-yl)-8-fluoropyrido[4,3-d]pyrimidine]	7.5
Fc1c(-c2cccc3cccc(C(F)(F)F)c23)ncc2c(N3C[C@H]4CC[C@@H](C3)N4)nc(OC[C@@]34CCCN3C[C@H](F)C4)nc12 [Example 419, 4-((1R,5S)-3,8-diazabicyclo[3.2.1]octan-3-yl)-8-fluoro-2-(((2R,7aS)-2-fluorotetrahydro-1H-pyrrolizin-7a(5H)-yl)methoxy)-7-(8-(trifluoromethyl)naphthalen-1-yl)pyrido[4,3-d]pyrimidine]	50.9
CS(=O)(=O)NC[C@H]1CC[C@@]2(COc3nc(N4C[C@H]5CC[C@@H](C4)N5)c4cnc(-c5cccc6cccc(Cl)c56)c(F)c4n3)CCCN12 [Example 420, N-(((3R,7aR)-7a-(((4-((1R,5S)-3,8-diazabicyclo[3.2.1]octan-3-yl)-7-(8-chloronaphthalen-1-yl)-8-fluoropyrido[4,3-d]pyrimidin-2-yl)oxy)methyl)hexahydro-1H-pyrrolizin-3-yl)methyl)methanesulfonamide]	20
CC(C)c1ncccc1-c1ncc2c(N3C[C@H]4CC[C@@H](C3)N4)nc(OC[C@@]34CCCN3C[C@H](F)C4)nc2c1F [Example 421, 4-((1R,5S)-3,8-diazabicyclo[3.2.1]octan-3-yl)-8-fluoro-2-(((2R,7aS)-2-fluorohexahydro-1H-pyrrolizin-7a-yl)methoxy)-7-(2-isopropylpyridin-3-yl)pyrido[4,3-d]pyrimidine]	7750
COCc1cccc2cccc(-c3ncc4c(N5C[C@H]6CC[C@@H](C5)N6)nc(OC[C@@]56CCCN5C[C@H](F)C6)nc4c3F)c12 [Example 423, 4-((1R,5S)-3,8-diazabicyclo[3.2.1]octan-3-yl)-8-fluoro-2-(((2R,7aS)-2-fluorohexahydro-1H-pyrrolizin-7a-yl)methoxy)-7-(8-(methoxymethyl)naphthalen-1-yl)pyrido[4,3-d]pyrimidine]	238
Oc1ccc(CC(F)(F)F)c(-c2ncc3c(N4C[C@H]5CC[C@@H](C4)N5)nc(OC[C@@]45CCCN4C[C@H](F)C5)nc3c2F)c1 [Example 424, 3-(4-((1R,5S)-3,8-diazabicyclo[3.2.1]octan-3-yl)-8-fluoro-2-(((2R,7aS)-2-fluorohexahydro-1H-pyrrolizin-7a-yl)methoxy)pyrido[4,3-d]pyrimidin-7-yl)-4-(2,2,2-trifluoroethyl)phenol]	5
Fc1c(-c2cccc3cccc(Cl)c23)ncc2c(N3C[C@H]4CC[C@@H](C3)N4)nc(OCC34CC(F)CN3CC(F)C4)nc12 (stereo partly drawn) [Example 425, 4-((1R,5S)-3,8-diazabicyclo[3.2.1]octan-3-yl)-7-(8-chloronaphthalen-1-yl)-2-((2,6-difluorohexahydro-1H-pyrrolizin-7a-yl)methoxy)-8-fluoropyrido[4,3-d]pyrimidine]	90.2
CCc1c(F)ccc2cccc(-c3ncc4c(N5C[C@H]6CC[C@@H](C5)N6)nc(OCC56CCCN5CCC6)nc4c3F)c12 [Example 426, 4-((1R,5S)-3,8-diazabicyclo[3.2.1]octan-3-yl)-7-(8-ethyl-7-fluoronaphthalen-1-yl)-8-fluoro-2-((hexahydro-1H-pyrrolizin-7a-yl)methoxy)pyrido[4,3-d]pyrimidine]	0.9
CCn1ccc2cccc(-c3ncc4c(N5C[C@H]6CC[C@@H](C5)N6)nc(OCC56CCCN5CCC6)nc4c3F)c21 [Example 427, 4-((1R,5S)-3,8-diazabicyclo[3.2.1]octan-3-yl)-7-(1-ethyl-1H-indol-7-yl)-8-fluoro-2-((hexahydro-1H-pyrrolizin-7a-yl)methoxy)pyrido[4,3-d]pyrimidine]	35.3
Fc1c(-c2cccc3c2CCC3)ncc2c(N3CC4CCC(C3)N4)nc(OC[C@@]34CCCN3C[C@H](F)C4)nc12 [Example 428, 4-(3,8-diazabicyclo[3.2.1]octan-3-yl)-7-(2,3-dihydro-1H-inden-4-yl)-8-fluoro-2-(((2R,7aS)-2-fluorotetrahydro-1H-pyrrolizin-7a(5H)-yl)methoxy)pyrido[4,3-d]pyrimidine]	92.1
CC1CCc2cccc(-c3ncc4c(N5CC6CCC(C5)N6)nc(OC[C@@]56CCCN5C[C@H](F)C6)nc4c3F)c21 (stereo partly drawn) [Example 429, 4-(3,8-diazabicyclo[3.2.1]octan-3-yl)-8-fluoro-2-(((2R,7aS)-2-fluorotetrahydro-1H-pyrrolizin-7a(5H)-yl)methoxy)-7-(3-methyl-2,3-dihydro-1H-inden-4-yl)pyrido[4,3-d]pyrimidine]	18.5
Fc1ccc2cccc(-c3ncc4c(N5C[C@H]6CC[C@@H](C5)N6)nc(OC[C@@]56CCCN5C[C@H](F)C6)nc4c3F)c2c1F [Example 430, 4-((1R,5S)-3,8-diazabicyclo[3.2.1]octan-3-yl)-7-(7,8-difluoronaphthalen-1-yl)-8-fluoro-2-(((2R,7aS)-2-fluorotetrahydro-1H-pyrrolizin-7a(5H)-yl)methoxy)pyrido[4,3-d]pyrimidine]	1
CCc1cccc2cc(O)cc(-c3ncc4c(N5C[C@H]6CC[C@@H](C5)N6)nc(OC[C@]56CCCN5[C@@H](COC(=O)NC)CC6)nc4c3F)c12 [Example 433, ((3R,7aR)-7a-(((4-((1R,5S)-3,8-diazabicyclo[3.2.1]octan-3-yl)-7-(8-ethyl-3-hydroxynaphthalen-1-yl)-8-fluoropyrido[4,3-d]pyrimidin-2-yl)oxy)methyl)hexahydro-1H-pyrrolizin-3-yl)methyl methylcarbamate]	0.9
CCc1cccc2cc(O)cc(-c3ncc4c(N5CC6CCC(C5)N6)nc(OC[C@]56CCCN5[C@@H](COC(=O)N(C)C)CC6)nc4c3F)c12 [Example 434, 7a-(((4-((1R,5S)-3,8-diazabicyclo[3.2.1]octan-3-yl)-7-(8-ethyl-3-hydroxynaphthalen-1-yl)-8-fluoropyrido[4,3-d]pyrimidin-2-yl)oxy)methyl)hexahydro-1H-pyrrolizin-3-yl)methyl dimethyl carbamate]	0.7
CNC(=O)O[C@@H]1CN2CCC[C@]2(COc2nc(N3C[C@H]4CC[C@@H](C3)N4)c3cnc(-c4cccc5cccc(Cl)c45)c(F)c3n2)C1 [Example 435, (2S,7aR)-7a-(((4-((1R,5S)-3,8-diazabicyclo[3.2.1]octan-3-yl)-7-(8-chloronaphthalen-1-yl)-8-fluoropyrido[4,3-d]pyrimidin-2-yl)oxy)methyl)hexahydro-1H-pyrrolizin-2-yl methylcarbamate]	28.2
O=C(O[C@@H]1CN2CCC[C@]2(COc2nc(N3C[C@H]4CC[C@@H](C3)N4)c3cnc(-c4cccc5cccc(Cl)c45)c(F)c3n2)C1)N1CCOCC1 [Example 436, (2S,7aR)-7a-(((4-((1R,5S)-3,8-diazabicyclo[3.2.1]octan-3-yl)-7-(8-chloronaphthalen-1-yl)-8-fluoropyrido[4,3-d]pyrimidin-2-yl)oxy)methyl)hexahydro-1H-pyrrolizin-2-yl morpholine-4-carboxylate]	48.3
Fc1c(-c2cccc3c2C(C2CC2)CC3)ncc2c(N3CC4CCC(C3)N4)nc(OC[C@@]34CCCN3C[C@H](F)C4)nc12 (stereo partly drawn) [Example 437, 4-(3,8-diazabicyclo[3.2.1]octan-3-yl)-7-(3-cyclopropyl-2,3-dihydro-1H-inden-4-yl)-8-fluoro-2-(((2R,7aS)-2-fluorotetrahydro-1H-pyrrolizin-7a(5H)-yl)methoxy)pyrido[4,3-d]pyrimidine]	234
Fc1c(-c2cccc3c2CC2CC32)ncc2c(N3CC4CCC(C3)N4)nc(OC[C@@]34CCCN3C[C@H](F)C4)nc12 (stereo partly drawn) [Example 438, 4-(3,8-diazabicyclo[3.2.1]octan-3-yl)-8-fluoro-2-(((2R,7aS)-2-fluorotetrahydro-1H-pyrrolizin-7a(5H)-yl)methoxy)-7-(1,1a,6,6a-tetrahydrocyclopropa[a]inden-5-yl)pyrido[4,3-d]pyrimidine]	20.1
C#Cc1c(F)ccc2cccc(-c3ncc4c(N5C[C@H]6CC[C@@H](C5)N6)nc(OC[C@]56CCCN5[C@@H](COC(=O)N(C)C)CC6)nc4c3F)c12 [Example 439, ((3R,7aR)-7a-(((4-((1R,5S)-3,8-diazabicyclo[3.2.1]octan-3-yl)-7-(8-ethynyl-7-fluoronaphthalen-1-yl)-8-fluoropyrido[4,3-d]pyrimidin-2-yl)oxy)methyl)hexahydro-1H-pyrrolizin-3-yl)methyl dimethylcarbamate]	0.4
CCc1c(F)ccc2cc(O)cc(-c3ncc4c(N5C[C@H]6CC[C@@H](C5)N6)nc(OC[C@]56CCCN5[C@@H](COC(=O)N(C)C)CC6)nc4c3F)c12 [Example 441, ((3R,7aR)-7a-(((4-((1R,5S)-3,8-diazabicyclo[3.2.1]octan-3-yl)-7-(8-ethyl-7-fluoro-3-hydroxynaphthalen-1-yl)-8-fluoropyrido[4,3-d]pyrimidin-2-yl)oxy)methyl)hexahydro-1H-pyrrolizin-3-yl)methyl dimethylcarbamate]	0.5
O=C1OCCN1C[C@H]1CC[C@@]2(COc3nc(N4CC5CCC(C4)N5)c4cnc(-c5cccc6cccc(Cl)c56)c(F)c4n3)CCCN12 [Example 442, 3-(((3R,7aR)-7a-(((4-(3,8-diazabicyclo[3.2.1]octan-3-yl)-7-(8-chloronaphthalen-1-yl)-8-fluoropyrido[4,3-d]pyrimidin-2-yl)oxy)methyl)hexahydro-1H-pyrrolizin-3-yl)methyl)oxazolidin-2-one]	25
O=C(OC[C@H]1CC[C@@]2(COc3nc(N4CC5CCC(C4)N5)c4cnc(-c5cccc6cccc(Cl)c56)c(F)c4n3)CCCN12)N1CCCC1 [Example 443, ((3R,7aR)-7a-(((4-(3,8-diazabicyclo[3.2.1]octan-3-yl)-7-(8-chloronaphthalen-1-yl)-8-fluoropyrido[4,3-d]pyrimidin-2-yl)oxy)methyl)hexahydro-1H-pyrrolizin-3-yl)methyl pyrrolidine-1-carboxylate]	3.2
